Key:
[1] = target: Sodium-dependent noradrenaline transporter (Homo sapiens) (UniProt P23975); test: Transporter, Norepinephrine (NET) Eurofins Panlabs panel; conditions: Compound concentration 10.0 uM
[2] = target: Endothelin receptor type B (Homo sapiens) (UniProt P24530); test: Endothelin ETB Eurofins Panlabs panel; conditions: Compound concentration 10.0 uM
[3] = target: D(3) dopamine receptor (Homo sapiens) (UniProt P35462); test: Dopamine D3 Eurofins Panlabs panel; conditions: Compound concentration 10.0 uM
[4] = target: Phosphodiesterase PDE1 (Bos taurus, UniProt Q01061+P14100+A0A3Q1MCV4); test: 3H-cAMP and 3H-cGMP Scintillation Proximity Assay (PDE1); type: tissue-based, brain
[5] = target: Mu-type opioid receptor (Homo sapiens, UniProt P35372); test: Opiate ??(OP3, MOP) Eurofins Panlabs panel; conditions: Compound concentration 10.0 uM
[6] = target: hERG (KCNH2) potassium channel (Homo sapiens, UniProt Q12809); test: Potassium Channel hERG Eurofins Panlabs panel; conditions: compound concentration 10 uM
[7] = target: Prostaglandin G/H synthase 1 (Homo sapiens) (UniProt P23219); test: Cyclooxygenase COX-1 Eurofins Panlabs panel; conditions: Compound concentration 10.0 uM
[8] = target: 3',5'-cyclic-AMP phosphodiesterase 7B (Homo sapiens, UniProt Q9NP56); test: 3H-cAMP and 3H-cGMP Scintillation Proximity Assay (PDE7B)
[9] = target: Adenosine Transporter (Cavia porcellus) (UniProt H0V4R7+H0UUG1+H0V3Z5); test: Transporter, Adenosine Eurofins Panlabs panel; type: protein assay; conditions: Compound concentration 10.0 uM
[10] = target: Histamine H3 receptor (Homo sapiens) (UniProt Q9Y5N1); test: Histamine H3 Eurofins Panlabs panel; conditions: Compound concentration 10.0 uM
[11] = target: Nitric oxide synthase, inducible (Mus musculus) (UniProt P29477); test: Nitric Oxide Synthetase, Inducible (iNOS) Eurofins Panlabs panel; conditions: Compound concentration 10.0 uM
[12] = target: Glutamate receptor ionotropic, AMPA (Rattus norvegicus) (UniProt P19491+P19492+P19493+P19490); test: Glutamate, AMPA Eurofins Panlabs panel; type: protein-complex assay; conditions: Compound concentration 10.0 uM
[13] = target: High affinity cAMP-specific and IBMX-insensitive 3',5'-cyclic phosphodiesterase 8A (Homo sapiens, UniProt O60658); test: 3H-cAMP and 3H-cGMP Scintillation Proximity Assay (PDE8A)
[14] = target: 5-hydroxytryptamine receptor 4 (Cavia porcellus) (UniProt O70528); test: Serotonin (5-Hydroxytryptamine) 5-HT4 Eurofins Panlabs panel; conditions: Compound concentration 10.0 uM
[15] = target: cGMP-specific 3',5'-cyclic phosphodiesterase (Homo sapiens, UniProt O76074); test: 3H-cAMP and 3H-cGMP Scintillation Proximity Assay (PDE5A)
[16] = target: T1, Alpha-2B adrenergic receptor (Homo sapiens) (UniProt P18089); test: Adrenergic alpha2B Eurofins Panlabs panel; conditions: Compound concentration 10.0 uM
T1 sequence (whole entry): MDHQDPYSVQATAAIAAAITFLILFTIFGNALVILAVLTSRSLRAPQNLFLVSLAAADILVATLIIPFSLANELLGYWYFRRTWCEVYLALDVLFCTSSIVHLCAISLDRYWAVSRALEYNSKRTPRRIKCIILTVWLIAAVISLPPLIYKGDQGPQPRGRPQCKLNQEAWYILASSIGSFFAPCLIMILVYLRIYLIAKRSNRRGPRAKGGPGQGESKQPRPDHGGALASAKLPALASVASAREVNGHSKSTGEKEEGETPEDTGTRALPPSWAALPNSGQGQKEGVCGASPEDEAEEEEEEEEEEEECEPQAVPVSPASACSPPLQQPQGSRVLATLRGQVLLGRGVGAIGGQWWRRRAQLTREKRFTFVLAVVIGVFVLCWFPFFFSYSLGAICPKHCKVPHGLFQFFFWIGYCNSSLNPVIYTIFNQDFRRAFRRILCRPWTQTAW

[17] = target: T2, Alpha-2A adrenergic receptor (Homo sapiens) (UniProt P08913); test: Adrenergic alpha2A Eurofins Panlabs panel; conditions: Compound concentration 10.0 uM
T2 sequence (whole entry): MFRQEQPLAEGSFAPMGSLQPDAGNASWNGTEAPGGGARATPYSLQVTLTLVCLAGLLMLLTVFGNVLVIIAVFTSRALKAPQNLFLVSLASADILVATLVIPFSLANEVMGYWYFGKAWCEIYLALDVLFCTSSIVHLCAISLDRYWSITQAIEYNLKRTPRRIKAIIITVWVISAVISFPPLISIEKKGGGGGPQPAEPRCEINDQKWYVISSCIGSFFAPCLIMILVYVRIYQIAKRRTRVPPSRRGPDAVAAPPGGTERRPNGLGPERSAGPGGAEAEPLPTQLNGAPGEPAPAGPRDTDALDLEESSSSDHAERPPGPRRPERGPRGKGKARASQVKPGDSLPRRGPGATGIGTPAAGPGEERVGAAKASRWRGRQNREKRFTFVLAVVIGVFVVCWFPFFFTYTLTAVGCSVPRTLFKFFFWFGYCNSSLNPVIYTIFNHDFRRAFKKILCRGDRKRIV

[18] = target: B1 bradykinin receptor (Homo sapiens) (UniProt P46663); test: Bradykinin B1 Eurofins Panlabs panel; conditions: Compound concentration 10.0 uM
[19] = target: T3, 5-hydroxytryptamine receptor 1A (Homo sapiens) (UniProt P08908); test: Serotonin (5-Hydroxytryptamine) 5-HT1A Eurofins Panlabs panel; conditions: Compound concentration 10.0 uM
T3 sequence (whole entry): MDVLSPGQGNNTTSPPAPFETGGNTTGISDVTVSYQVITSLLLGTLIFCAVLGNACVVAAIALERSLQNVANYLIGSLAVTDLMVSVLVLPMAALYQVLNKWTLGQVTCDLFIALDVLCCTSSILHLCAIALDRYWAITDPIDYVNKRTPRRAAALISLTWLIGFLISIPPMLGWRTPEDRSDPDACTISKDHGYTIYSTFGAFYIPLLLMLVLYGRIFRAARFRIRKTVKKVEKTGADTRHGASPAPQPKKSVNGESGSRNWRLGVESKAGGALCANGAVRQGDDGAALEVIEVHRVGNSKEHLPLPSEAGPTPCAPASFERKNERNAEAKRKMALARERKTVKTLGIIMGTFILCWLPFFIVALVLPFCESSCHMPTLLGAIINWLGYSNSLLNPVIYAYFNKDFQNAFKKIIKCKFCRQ

[20] = target: Carbonic anhydrase 2 (Homo sapiens) (UniProt P00918); test: Carbonic Anhydrase II Eurofins Panlabs panel; conditions: Compound concentration 10.0 uM
[21] = target: Monoamine oxidase A (MAO-A) (Homo sapiens, UniProt P21397); test: Monoamine Oxidase MAO-A Eurofins Panlabs panel; conditions: compound concentration 10 uM
[22] = target: Alpha-1A adrenergic receptor (Homo sapiens) (UniProt P35348); conditions: Compound concentration 10.0 uM
[23] = target: Dual 3',5'-cyclic-AMP and -GMP phosphodiesterase 11A (Homo sapiens, UniProt Q9HCR9); test: Panlabs assay PDE11A4; parameters: compound concentration 10 uM; conditions: at 10 µM
[24] = target: cAMP and cAMP-inhibited cGMP 3',5'-cyclic phosphodiesterase 10A (Homo sapiens, UniProt Q9Y233); test: Panlabs assay PDE10A2; parameters: compound concentration 10 uM; conditions: at 10 µM
[25] = target: Dual specificity calcium/calmodulin-dependent 3',5'-cyclic nucleotide phosphodiesterase 1A (Homo sapiens) (UniProt P54750); test: Panlabs assay PDE1A; parameters: compound concentration 10 uM; conditions: at 10 µM
[26] = target: 3',5'-cyclic-AMP phosphodiesterase 4B (Homo sapiens, UniProt Q07343); test: Panlabs assay PDE4B1; parameters: compound concentration 10 uM; conditions: at 10 µM
[27] = target: 3',5'-cyclic-AMP phosphodiesterase 4C (Homo sapiens) (UniProt Q08493); test: Panlabs assay PDE4C1; parameters: compound concentration 10 uM; conditions: at 10 µM

Sequence of Alpha-1A adrenergic receptor (Homo sapiens) (P35348 whole entry): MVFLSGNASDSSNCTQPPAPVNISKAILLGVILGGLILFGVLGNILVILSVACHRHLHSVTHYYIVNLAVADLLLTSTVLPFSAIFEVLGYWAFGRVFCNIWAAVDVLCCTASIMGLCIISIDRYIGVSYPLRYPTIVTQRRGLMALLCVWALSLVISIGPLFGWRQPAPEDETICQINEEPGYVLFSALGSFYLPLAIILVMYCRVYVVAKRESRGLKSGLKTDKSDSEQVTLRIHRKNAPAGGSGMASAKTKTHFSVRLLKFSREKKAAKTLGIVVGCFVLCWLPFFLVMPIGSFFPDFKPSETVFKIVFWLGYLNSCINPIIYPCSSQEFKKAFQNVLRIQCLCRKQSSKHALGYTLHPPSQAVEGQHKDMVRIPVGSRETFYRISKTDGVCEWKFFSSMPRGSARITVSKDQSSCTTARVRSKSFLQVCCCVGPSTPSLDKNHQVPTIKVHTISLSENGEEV
Sequence of cAMP and cAMP-inhibited cGMP 3',5'-cyclic phosphodiesterase 10A (Q9Y233 whole entry): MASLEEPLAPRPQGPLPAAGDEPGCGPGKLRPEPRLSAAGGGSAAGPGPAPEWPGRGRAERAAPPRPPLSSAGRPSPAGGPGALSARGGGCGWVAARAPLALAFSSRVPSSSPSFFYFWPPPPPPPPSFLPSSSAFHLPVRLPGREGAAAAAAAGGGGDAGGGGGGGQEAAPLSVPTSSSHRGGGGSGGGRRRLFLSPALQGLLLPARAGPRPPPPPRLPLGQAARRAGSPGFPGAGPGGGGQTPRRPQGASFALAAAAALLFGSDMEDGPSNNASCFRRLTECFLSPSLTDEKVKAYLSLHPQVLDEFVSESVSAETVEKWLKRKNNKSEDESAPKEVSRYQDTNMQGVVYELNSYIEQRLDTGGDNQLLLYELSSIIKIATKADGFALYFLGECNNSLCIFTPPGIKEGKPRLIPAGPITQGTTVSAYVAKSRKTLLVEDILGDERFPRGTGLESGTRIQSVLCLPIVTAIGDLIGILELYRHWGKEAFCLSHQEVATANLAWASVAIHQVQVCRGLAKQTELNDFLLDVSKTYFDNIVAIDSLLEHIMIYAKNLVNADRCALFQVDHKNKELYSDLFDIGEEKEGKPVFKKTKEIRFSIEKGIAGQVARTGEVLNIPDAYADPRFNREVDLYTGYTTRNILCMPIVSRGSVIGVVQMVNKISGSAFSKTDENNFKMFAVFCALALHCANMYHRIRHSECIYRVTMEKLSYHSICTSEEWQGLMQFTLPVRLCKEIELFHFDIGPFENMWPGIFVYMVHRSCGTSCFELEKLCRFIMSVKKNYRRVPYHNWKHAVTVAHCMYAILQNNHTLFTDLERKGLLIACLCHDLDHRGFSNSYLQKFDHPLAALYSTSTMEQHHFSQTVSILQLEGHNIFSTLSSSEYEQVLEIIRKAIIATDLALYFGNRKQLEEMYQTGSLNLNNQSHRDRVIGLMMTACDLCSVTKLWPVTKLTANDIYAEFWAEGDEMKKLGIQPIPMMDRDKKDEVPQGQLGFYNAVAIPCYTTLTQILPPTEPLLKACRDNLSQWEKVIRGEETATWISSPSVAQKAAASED
Sequence of Monoamine oxidase A (MAO-A) (P21397 whole entry): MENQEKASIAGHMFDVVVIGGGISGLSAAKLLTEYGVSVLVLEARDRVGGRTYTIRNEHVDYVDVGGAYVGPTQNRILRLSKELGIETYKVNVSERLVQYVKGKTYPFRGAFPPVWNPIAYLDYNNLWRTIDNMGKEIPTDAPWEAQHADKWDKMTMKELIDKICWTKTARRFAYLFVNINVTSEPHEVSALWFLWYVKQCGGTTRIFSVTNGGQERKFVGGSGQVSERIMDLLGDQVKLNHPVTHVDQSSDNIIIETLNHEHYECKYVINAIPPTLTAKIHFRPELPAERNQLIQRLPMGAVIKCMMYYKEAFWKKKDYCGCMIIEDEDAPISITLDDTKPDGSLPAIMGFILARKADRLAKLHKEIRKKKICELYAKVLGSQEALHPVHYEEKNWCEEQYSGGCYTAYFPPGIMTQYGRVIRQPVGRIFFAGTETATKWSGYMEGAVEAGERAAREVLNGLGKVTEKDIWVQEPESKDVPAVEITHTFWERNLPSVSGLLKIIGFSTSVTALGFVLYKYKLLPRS
Sequence of 5-hydroxytryptamine receptor 4 (Cavia porcellus) (O70528 whole entry): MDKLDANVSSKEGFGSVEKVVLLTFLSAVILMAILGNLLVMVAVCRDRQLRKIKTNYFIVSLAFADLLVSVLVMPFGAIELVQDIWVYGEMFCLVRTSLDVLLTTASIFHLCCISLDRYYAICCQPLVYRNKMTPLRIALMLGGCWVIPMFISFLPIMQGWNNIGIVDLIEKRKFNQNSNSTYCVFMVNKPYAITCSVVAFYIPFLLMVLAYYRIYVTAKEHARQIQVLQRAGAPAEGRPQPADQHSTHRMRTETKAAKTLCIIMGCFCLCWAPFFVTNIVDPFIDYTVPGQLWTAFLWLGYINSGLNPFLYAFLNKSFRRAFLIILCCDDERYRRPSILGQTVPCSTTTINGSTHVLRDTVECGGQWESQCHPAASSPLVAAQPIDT
Sequence of Histamine H3 receptor (Homo sapiens) (Q9Y5N1 whole entry): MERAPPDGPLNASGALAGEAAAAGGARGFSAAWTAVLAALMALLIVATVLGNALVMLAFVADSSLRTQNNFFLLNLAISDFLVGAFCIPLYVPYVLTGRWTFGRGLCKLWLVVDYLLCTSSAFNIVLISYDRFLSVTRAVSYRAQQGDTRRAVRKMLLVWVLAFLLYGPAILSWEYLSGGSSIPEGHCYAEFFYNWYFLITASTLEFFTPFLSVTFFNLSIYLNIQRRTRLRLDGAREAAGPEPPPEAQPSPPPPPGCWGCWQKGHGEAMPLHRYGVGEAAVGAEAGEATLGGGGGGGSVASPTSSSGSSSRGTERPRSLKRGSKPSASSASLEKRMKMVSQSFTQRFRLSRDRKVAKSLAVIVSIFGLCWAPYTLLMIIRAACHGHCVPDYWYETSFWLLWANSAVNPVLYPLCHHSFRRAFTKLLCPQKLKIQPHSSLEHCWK
Sequence of 3',5'-cyclic-AMP phosphodiesterase 7B (Q9NP56 whole entry): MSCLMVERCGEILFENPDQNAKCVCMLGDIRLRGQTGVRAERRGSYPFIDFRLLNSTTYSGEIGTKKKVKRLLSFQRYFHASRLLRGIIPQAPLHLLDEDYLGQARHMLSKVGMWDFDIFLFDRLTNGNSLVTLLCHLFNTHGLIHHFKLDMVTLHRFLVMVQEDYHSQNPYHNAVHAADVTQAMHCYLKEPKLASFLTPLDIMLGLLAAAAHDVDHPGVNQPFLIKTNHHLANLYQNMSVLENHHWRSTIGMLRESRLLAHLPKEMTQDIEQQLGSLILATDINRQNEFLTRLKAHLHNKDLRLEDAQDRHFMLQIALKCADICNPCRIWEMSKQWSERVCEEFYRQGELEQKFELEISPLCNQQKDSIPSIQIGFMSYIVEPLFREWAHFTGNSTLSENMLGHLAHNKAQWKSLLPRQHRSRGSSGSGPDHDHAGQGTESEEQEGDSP
Sequence of hERG (KCNH2) potassium channel (Q12809 whole entry): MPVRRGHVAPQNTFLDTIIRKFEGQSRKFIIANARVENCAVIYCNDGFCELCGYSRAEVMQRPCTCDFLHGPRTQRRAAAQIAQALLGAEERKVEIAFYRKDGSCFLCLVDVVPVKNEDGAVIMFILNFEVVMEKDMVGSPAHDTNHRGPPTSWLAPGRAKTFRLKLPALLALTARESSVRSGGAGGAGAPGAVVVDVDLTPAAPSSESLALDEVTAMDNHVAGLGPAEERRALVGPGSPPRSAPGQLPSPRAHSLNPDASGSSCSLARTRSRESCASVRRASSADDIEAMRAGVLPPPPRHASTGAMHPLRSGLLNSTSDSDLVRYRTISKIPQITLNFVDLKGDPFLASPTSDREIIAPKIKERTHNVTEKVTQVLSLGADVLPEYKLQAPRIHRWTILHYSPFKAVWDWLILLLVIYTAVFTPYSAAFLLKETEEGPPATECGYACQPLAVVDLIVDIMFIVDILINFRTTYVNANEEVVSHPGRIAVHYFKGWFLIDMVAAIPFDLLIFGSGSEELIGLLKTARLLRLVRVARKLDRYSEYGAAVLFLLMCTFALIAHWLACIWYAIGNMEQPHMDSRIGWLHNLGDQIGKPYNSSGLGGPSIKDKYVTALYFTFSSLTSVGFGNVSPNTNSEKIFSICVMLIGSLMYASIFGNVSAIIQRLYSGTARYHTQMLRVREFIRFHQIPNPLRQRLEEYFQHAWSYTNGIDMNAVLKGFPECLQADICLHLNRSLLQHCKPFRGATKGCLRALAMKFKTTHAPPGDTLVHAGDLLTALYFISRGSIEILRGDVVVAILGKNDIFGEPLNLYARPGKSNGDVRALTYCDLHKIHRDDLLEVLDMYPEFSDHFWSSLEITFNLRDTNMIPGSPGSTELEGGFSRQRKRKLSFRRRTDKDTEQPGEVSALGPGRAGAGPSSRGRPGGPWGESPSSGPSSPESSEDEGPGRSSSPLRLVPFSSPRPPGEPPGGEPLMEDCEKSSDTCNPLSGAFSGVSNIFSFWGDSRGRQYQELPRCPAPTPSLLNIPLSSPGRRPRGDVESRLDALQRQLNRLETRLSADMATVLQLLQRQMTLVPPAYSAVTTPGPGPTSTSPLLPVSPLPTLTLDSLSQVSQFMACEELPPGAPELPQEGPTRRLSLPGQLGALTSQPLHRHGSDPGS
Sequence of Mu-type opioid receptor (P35372 whole entry): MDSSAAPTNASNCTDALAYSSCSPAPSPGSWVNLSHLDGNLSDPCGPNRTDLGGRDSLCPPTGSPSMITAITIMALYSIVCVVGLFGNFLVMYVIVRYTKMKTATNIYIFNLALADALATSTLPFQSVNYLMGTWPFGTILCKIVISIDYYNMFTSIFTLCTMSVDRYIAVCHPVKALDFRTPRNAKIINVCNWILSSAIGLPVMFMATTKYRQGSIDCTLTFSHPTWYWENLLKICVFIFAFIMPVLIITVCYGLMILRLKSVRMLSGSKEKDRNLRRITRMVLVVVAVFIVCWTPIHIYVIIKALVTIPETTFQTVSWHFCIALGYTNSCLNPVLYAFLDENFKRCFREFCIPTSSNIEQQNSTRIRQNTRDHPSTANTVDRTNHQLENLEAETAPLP

Q: With `CCC[C@H]1CNCc2c1[nH]c(=O)c(C#N)c2N1CCC2(CC1)CC2` as the molecule, how does the inhibition [1] read?
A: 6%

Q: And the inhibition [2]?
A: 8%

Q: What about the inhibition [3] of the same molecule?
A: 2%

Q: What about the IC50 [4] of the same molecule?
A: 753 nM

Q: And the inhibition [5]?
A: 18.4%

Q: What about the inhibition at 10 µM [6] of the same molecule?
A: 18.5%

Q: And the inhibition [7]?
A: 1%

Q: And the IC50 [8]?
A: > 10000 nM (not active)

Q: And the inhibition [9]?
A: 4%

Q: And the inhibition [10]?
A: 5%

Q: What about the inhibition [11] of the same molecule?
A: 6%

Q: And the inhibition [12]?
A: -2%

Q: And the IC50 [13]?
A: 1490 nM (not active)

Q: And the inhibition [14]?
A: 22%

Q: What about the IC50 [15] of the same molecule?
A: 2980 nM (not active)

Q: What about the inhibition [16] of the same molecule?
A: 7%

Q: And the inhibition [17]?
A: 28%

Q: What about the inhibition [18] of the same molecule?
A: 1%

Q: And the inhibition [19]?
A: 10%

Q: And the inhibition [20]?
A: -7.5%

Q: And the inhibition at 10 µM [21]?
A: 2%

Q: And the inhibition [22]?
A: 6.38%

Q: `CCC[C@@H]1CNCc2c1[nH]c(=O)c(C#N)c2N1CCC2(CC1)CC2` was tested. Which inhibition [23] did it give?
A: 1.3%

Q: What about the inhibition [24] of the same molecule?
A: 1.6%

Q: What about the inhibition [25] of the same molecule?
A: 7.7%

Q: And the inhibition [26]?
A: 10.6%

Q: What about the inhibition [27] of the same molecule?
A: 28.6%

Source: ChEMBL document CHEMBL5303765, “Data for DCP probe BAY-7081” (2023)
